pIC50: −log10 of the molar value. Read-outs that look alike come from different tables or passages of the source.
Tests used:
[1] = system: THP-1; test: In vitro cytotoxicity, THP-1 (Acute Myeloid Leukemia); type: cell-based; details: Homo sapiens, THP-1; 72 h, CellTiter-Glo 2.0; read-out: Cytotoxicity IC50, THP-1
Method: (§1) All cells were cultivated in RPMI medium 1640 (IX). All media was supplemented with 10 μg/μl penicillin/streptomycin, 10% heat inactivated FBS, 0.1 mM Sodium Pyruvate, 1×MEM NEAA (ThermoFisher) and 1 mM HEPES. The DERL-2 cells had higher FBS (20%) and 40 ng/mL IL-2 was added. hPBMCs were thawed and allowed to acclimatise overnight and then stimulated with 10 μg/mL PHA-M and 40 ng/mL IL-2 for 4 hours before being exposed to test compounds. All cells, except for hPBMCs, were grown to reach log phase before being exposed to the test compounds.
(§2) Test compounds were dissolved in 100% DMSO and added to a 384 assay plate. Additional DMSO was added to maintain the same final DMSO concentration (0.2%) in all wells. 25 μL cell suspension with a concentration of 100000 cells/mL was added to each well. The cells were cultured in a CO2 incubator at 37° C. for 72 h. Plates were equilibrated to room temperature for 30 minutes before adding 20 μL CellTiter-Glo® 2.0 (Promega) reagent to all wells. The plate was then allowed to stabilize for 20 minutes before recording the luminescence (Em filter 700 nm) in an Envision plate reader.

[2] = In vitro cytotoxicity, human peripheral blood mononuclear cells; type: cell-based; details: CellTiter-Glo 2.0, stimulated with PHA-M and IL-2, read-out: Cytotoxicity IC50, hPBMC
Method: as §1, §2

[3] = system: SUP-T1; test: In vitro cytotoxicity, SUP-T1 (T cell Lymphoma); type: cell-based; details: Homo sapiens, SUP-T1; 72 h, CellTiter-Glo 2.0; read-out: Cytotoxicity IC50, SUP-T1
Method: as §1, §2

[4] = system: EJM; test: In vitro cytotoxicity, EJM (Multiple Myeloma); type: cell-based; details: Homo sapiens, 72 h, CellTiter-Glo 2.0, read-out: Cytotoxicity IC50, EJM
Method: as §1, §2

[5] = system: AMO-1; test: In vitro cytotoxicity, AMO-1 (Multiple Myeloma); type: cell-based; details: Homo sapiens, AMO1; 72 h, CellTiter-Glo 2.0; read-out: Cytotoxicity IC50, AMO-1
Method: as §1, §2

[6] = system: MM.1S cells; test: In vitro cytotoxic potency in MM.1S cell viability assay (CellTiter-Glo); type: cell-based, human; details: Homo sapiens, MM1.S, 72 h
Procedure, shortened: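 Log-phase MM.1S cells in supplemented RPMI 1640 were seeded at 100000 cells/mL with compound (0.2% DMSO final). After 72 h at 37 °C in CO2, viability was measured by CellTiter-Glo 2.0 luminescence.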

[7] = system: U266; test: In vitro cytotoxicity, U266 (Multiple Myeloma); type: cell-based; details: Homo sapiens, U-266; 72 h, CellTiter-Glo 2.0; read-out: Cytotoxicity IC50, U266
Method: as §1, §2

[8] = In vitro cytotoxicity, BJ fibroblasts (normal cells); type: cell-based; details: human, CellTiter-Glo 2.0
Method: as §1, §2

[9] = system: RPMI-8226; test: In vitro cytotoxicity, RPMI-8226 (Multiple Myeloma, resistant); type: cell-based; details: Homo sapiens, RPMI-8226; 72 h, CellTiter-Glo 2.0; read-out: Cytotoxicity IC50, RPMI-8226
Method: as §1, §2

[10] = system: DERL-2; test: In vitro cytotoxicity, DERL-2 (T cell Lymphoma); type: cell-based; details: Homo sapiens, 72 h, CellTiter-Glo 2.0, 20% FBS, 40 ng/mL IL-2, read-out: Cytotoxicity IC50, DERL-2
Method: as §1, §2

[11] = system: KMS-12-BM; test: In vitro cytotoxicity, KMS-12-BM (Multiple Myeloma); type: cell-based; details: Homo sapiens, 72 h, CellTiter-Glo 2.0, read-out: Cytotoxicity IC50, KMS-12-BM
Method: as §1, §2

[12] = system: MM.1S cells; test: Cellular retention/efflux: intracellular and extracellular concentrations by LC-MS/MS; type: in vitro ADME, human; details: metabolites measured after treatment with the parent Example compound
Method: Methods: MMA1S cells at 2×10^6 cells/mL were seeded at 250 μL per well in a 96-well plate. Cells were incubated in the presence of a test compound for 5, 15, and 60 min before pelleting cells by centrifugation at +4° C. for 5 min. Cell media was immediately harvested to a second plate and stored at −80° C. until further analysis. Pelleted cells were washed once with ice cold PBS before storage at −80° C. until further analysis.
Cells were lysed and protein in the media were precipitated using acetonitrile dimethylformamide, 9:1 containing internal standard. Samples were centrifuged and the supernatant was analyzed with LC-MS/MS (ACQUITY UPLC-Xevo TQ-S micro) to determine compound concentration.
Example compound 1, bendamustine and melphalan were used as test compounds.
Method: Method described in Biological example 3.
Example compounds 1, 2, 3, 4, 6, 7 and 10 were investigated. Intracellular metabolites are formed from all compounds tested. The compound used for cell treatment was metabolised to the ester-hydrolysed compound (here called Metabolite A) and to the amide-hydrolysed compound (called Metabolite B). The example compound structures and the structures of the two metabolites for the respective compounds were as shown in Table 4. The Metabolites B formed under the conditions tested were compounds with structure as Examples 17 and 18: […]

[13] = system: DNA prepared from MM.1S cells (nuclear HPRT and mitochondrial DNA); test: Direct DNA damage, PCR amplification of treated DNA (HPRT and mtDNA primers); type: biochemical, human; details: 0.25 μM compound, 30 minutes, 37° C., 1 μg DNA
Method: Method: DNA was prepared from MM.1S cells by QIAGEN genomic tip 20/G according to protocol described in Furda et al., Methods Mol Biol, 2012. 1 μg of DNA was treated with 0.25 μM compound for 30 minutes at 37° C. DMSO was used as control treatment. 20 ng of the treated DNA was PCR amplified using Phusion Hot Start II High Fidelity PCR Master Mix (Thermo Scientific) and primers directed to either HPRT or primers directed to mitochondrial DNA (mtDNA) was used, generating 10.4 or 8.9 kb fragments, respectively. The PCR reactions were separated on a 1% agarose gel and visualized by ChemiDoc™ MP Imaging System (BioRad). Example compounds 1, 2 and 38 were investigated, as were compounds 18 and 20, which are metabolites of compound 1. They were compared with bendamustine, melphalan and DMSO control. The results for compounds 1, 2, 18 and 20 with the HPRT primers are shown in FIG. 4(A); the results with the mtDNA primers are shown in FIG. 4(B).

[14] = system: OPM-2; test: In vitro cytotoxicity, OPM-2 (Multiple Myeloma); type: cell-based; details: Homo sapiens, OPM-2; 72 h, CellTiter-Glo 2.0; read-out: Cytotoxicity IC50, OPM-2
Method: as §1, §2

[15] = system: SC-1; test: In vitro cytotoxicity, SC-1 (B cell Lymphoma); type: cell-based; details: Homo sapiens, SC-1; 72 h, CellTiter-Glo 2.0; read-out: Cytotoxicity IC50, SC-1
Method: as §1, §2

N[C@@H](Cc1ccc(N(CCCl)CCCl)cc1)C(=O)O [Melphalan, melphalan, reference compound]
pIC50 [1]: 5.37 | IC50 at 72 h [2]: 3.6 µM | pIC50 [3]: 5.53 | pIC50 [4]: 4.40 | pIC50 [5]: 5.08 | pIC50 ([6]; read-out: Cytotoxicity IC50, MM.1S): 5.37 | pIC50 ([6]; read-out: MM.1S IC50): 5.37 | pIC50 [7]: 4.72 | IC50 at 72 h [8]: 104 µM | pIC50 [9]: 4.49 | pIC50 [10]: 5.73 | pIC50 [11]: 5.01 | Intracellular concentration (in words) ([12]; MM.1S cells incubated with test compound 5, 15, 60 min): low intracellular concentration | Extracellular concentration (in words) ([12]; media of MM.1S cells incubated with test compound 5, 15, 60 min): high and constant throughout the experiment | DNA damage on nuclear and mitochondrial DNA (PCR band) [13]: no or very minor effect on DNA damage | pIC50 [14]: 4.99 | pIC50 [15]: 5.06
